Among the data in the SangsterLogP compilation are logD values, retold here.

The data set can be described thus: method code SF-AS, from DOI: 10.1177/1934578x0700201005. Conditions: pH 7.4.

The term logD denotes the decadic logarithm of the distribution of all forms, ionised or not, between an organic phase and buffer at a given pH. Take `COc1cccc(-c2cc(=O)c3ccccc3o2)c1`: the logD turned out to be 3.26.
For `O=c1cc(-c2cccc(O)c2)oc2ccccc12` the value was 3.03; for `COc1ccc(-c2cc(=O)c3ccccc3o2)cc1`, 3.21; for `COc1ccc2c(=O)cc(-c3ccccc3)oc2c1`, 3.12.
Take `COc1cccc2oc(-c3ccccc3)cc(=O)c12`: the logD turned out to be 2.98. The logD values of the last two compounds are within 0.2 log units of each other.
Then `O=c1cc(-c2ccccc2)oc2cccc(O)c12`, with 3.39; and `COc1c(-c2ccccc2)oc2ccccc2c1=O`, with 3.18.
For `O=c1cc(-c2ccccc2)oc2c(O)cccc12` the value was 3.03.
The compound `O=c1c(O)c(-c2ccccc2)oc2ccccc12` gave a pH-dependent lipophilicity (logD) of 3.52.
`COc1ccc2oc(-c3ccccc3)cc(=O)c2c1` returned a logD of 3.22.
Turning to `COc1ccccc1-c1cc(=O)c2ccccc2o1`, the logD was 3.14. The logD values of the last two compounds are within 0.2 log units of each other.
Then `COc1ccc2c(=O)cc(-c3ccccc3)oc2c1O`, with 2.9; and `O=c1cc(-c2ccccc2O)oc2ccccc12`, with 3.01.
